Molecular target: T1, human MC1R (hMC1R) (Homo sapiens, UniProt Q01726)
T1 construct: purchased Perkin Elmer ES-195-M400UA
Test: Human MC1R radioligand binding assay (displacement of 125I-labeled NDP-MSH, Perkin Elmer hMC1R membranes)
Details: displacement of [125I]NDP-MSH, compounds tested as trifluoroacetate or hydrochloride salts or free base
Procedure: Assessments of compound binding to human MC1R (hMC1R)) by displacement of an ^125I-labeled NDP-MSH receptor ligand peptide were performed essentially as described in the data sheets produced by Perkin Elmer to accompany their frozen hMC1R membranes (Perkin Elmer catalog number ES-195-M400UA).
[^125I] NDP-MSH: radiolabeled in house and purified by HPLC:
Na ^125I (0.5 mCi, 17.4 Ci/mg) was added to 50 μL sodium phosphate (50 mM, pH 7.4) in an eppendorf tube precoated with IODOGEN. After incubation for 10 mins the phosphate buffer containing the iodine was added to NDP-MSH (10 ul at 1 mg/mL) in a separate eppendorf tube. This was incubated for a further 10 mins. The iodinated NDP-MSH was purified by HPLC on a Zorbax SB 300 column using solvent A: 0.05% TFA and solvent B: 90% acetonitrile 0.045% TFA with a linear gradient, 0-67% B over 60 mins.
Perkin Elmer frozen hMC1 membranes: catalog number ES-195-M400UA, 0.4 mL/vial; 400 microassays/vial, 0.78 mg/mL protein concentration
Vials of frozen membranes were thawed rapidly immediately before use, diluted with binding buffer and vortexed. Resuspended membranes were kept on ice until they were added to the wells of the plate.
Assays were performed in 96 well polypropylene plates. […] This was incubated for 1 hr at 37° C.

T1 sequence (Q01726 whole entry): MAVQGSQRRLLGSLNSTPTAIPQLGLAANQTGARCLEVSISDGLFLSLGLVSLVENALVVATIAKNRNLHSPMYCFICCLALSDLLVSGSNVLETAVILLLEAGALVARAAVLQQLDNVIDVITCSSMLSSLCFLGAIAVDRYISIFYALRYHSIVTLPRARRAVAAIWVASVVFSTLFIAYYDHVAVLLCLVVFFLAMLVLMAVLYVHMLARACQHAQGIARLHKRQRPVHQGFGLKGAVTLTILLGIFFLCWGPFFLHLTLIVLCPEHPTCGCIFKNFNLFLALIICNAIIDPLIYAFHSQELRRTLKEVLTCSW

| Compound | IC50 |
| --- | --- |
| CNC(=O)[C@H](Cc1ccc2ccccc2c1)N1CC[C@H](CNC(=O)/C=C/c2ccc(Cl)cc2)N[C@@H](CCCNC(=N)N)C1=O [Compound 175, (E)-3-(4-chlorophenyl)-N-(((3S,5R)-3-(3-guanidinopropyl)-1-((S)-1-(methylamino)-3-(naphthalen-2-yl)-1-oxopropan-2-yl)-2-oxo-1,4-diazepan-5-yl)methyl)acrylamide] | < 10 µM |
| O=C(NC[C@@H]1CCN(CC(c2ccccc2)c2ccccc2)C(=O)[C@H](CCN2CCOCC2)N1)c1ccc2cc(Cl)ccc2c1 [Compound 181, 6-chloro-N-(((3S,5S)-1-(2,2-diphenylethyl)-3-(2-morpholinoethyl)-2-oxo-1,4-diazepan-5-yl)methyl)-2-naphthamide] | < 10 µM |
| N=C(N)NCCC[C@@H]1N[C@H](CNC(=O)c2ccc(-c3ccccc3)cc2)CCN(CC(c2ccccc2)c2ccccc2)C1=O [Compound 108, N-(((3S,5S)-1-(2,2-diphenylethyl)-3-(3-guanidinopropyl)-2-oxo-1,4-diazepan-5-yl)methyl)biphenyl-4-carboxamide] | < 10 µM |
| CC[C@H](CN1CC[C@@H](CNC(=O)c2ccc(Cl)c(Cl)c2)N[C@@H](CCN)C1=O)c1ccccc1 [Compound 170, N-(((3S,5S)-3-(2-aminoethyl)-2-oxo-1-((S)-2-phenylbutyl)-1,4-diazepan-5-yl)methyl)-3,4-dichlorobenzamide] | < 10 µM |
| O=C(/C=C/c1ccc(Cl)cc1)NC[C@@H]1CCN(CC(c2ccccc2)c2ccccc2)C(=O)[C@H](CCN2CCOCC2)N1 [Compound 159, (E)-3-(4-chlorophenyl)-N-(((3S,5S)-1-(2,2-diphenylethyl)-3-(2-morpholinoethyl)-2-oxo-1,4-diazepan-5-yl)methyl)acrylamide] | < 10 µM |
| CCC(CN1CC[C@@H](CNC(=O)c2ccc3ccccc3c2)N[C@@H](CCN)C1=O)c1ccccc1 (mixture of isomers) [Compound 102, N-(((3S,5S)-3-(2-aminoethyl)-2-oxo-1-(2-phenylbutyl)-1,4-diazepan-5-yl)methyl)-2-naphthamide] | < 10 µM |
| CC[C@H](CN1CC[C@@H](CNC(=O)c2ccccc2-c2ccc(Cl)cc2)N[C@@H](CCN2CCCCC2)C1=O)c1ccccc1 [Compound 179, 4′-chloro-N-(((3S,5S)-2-oxo-1-((S)-2-phenylbutyl)-3-(2-(piperidin-1-yl)ethyl)-1,4-diazepan-5-yl)methyl)biphenyl-2-carboxamide] | < 10 µM |
| CCC(CC)CN1CC[C@@H](CNC(=O)/C=C/c2ccc(Cl)cc2)N[C@@H](CCN)C1=O [Compound 146, (E)-N-(((3S,5S)-3-(2-aminoethyl)-1-(2-ethylbutyl)-2-oxo-1,4-diazepan-5-yl)methyl)-3-(4-chlorophenyl)acrylamide] | < 10 µM |
| (E)-N-(((3S,5S)-3-(aminomethyl)-1-(3,5-dichlorobenzyl)-2-oxo-1,4-diazepan-5-yl)methyl)-3-(4-chlorophenyl)acrylamide [Compound 150] | < 10 µM |
| CNC(=O)[C@H](Cc1ccc2ccccc2c1)N1CC[C@H](CNC(=O)[C@@H](N)Cc2ccc(F)cc2)N[C@@H](CCCNC(=N)N)C1=O [Compound 166, (S)-2-amino-3-(4-fluorophenyl)-N-(((3S,5R)-3-(3-guanidinopropyl)-1-((S)-1-(methylamino)-3-(naphthalen-2-yl)-1-oxopropan-2-yl)-2-oxo-1,4-diazepan-5-yl)methyl)propanamide] | < 10 µM |
| CC[C@H](CN1CC[C@@H](CNC(=O)c2csc(-c3ccccc3)n2)N[C@@H](CCN2CCCCC2)C1=O)c1ccccc1 [Compound 178, N-(((3S,5S)-2-oxo-1-((S)-2-phenylbutyl)-3-(2-(piperidin-1-yl)ethyl)-1,4-diazepan-5-yl)methyl)-2-phenylthiazole-4-carboxamide] | < 10 µM |
| O=C(/C=C/c1ccc(Cl)cc1)NC[C@@H]1CCN(Cc2cc(Cl)cc(Cl)c2)C(=O)[C@H](CCN2CCCCC2)N1 [Compound 145, (E)-3-(4-chlorophenyl)-N-(((3S,5S)-1-(3,5-dichlorobenzyl)-2-oxo-3-(2-(piperidin-1-yl)ethyl)-1,4-diazepan-5-yl)methyl)acrylamide] | < 10 µM |
| O=C(/C=C/c1ccc(Cl)cc1)NC[C@@H]1CCN(CC(c2ccccc2)c2ccccc2)C(=O)[C@H](CCCN2CCCCC2)N1 [Compound 132, (E)-3-(4-chlorophenyl)-N-(((3S,5S)-1-(2,2-diphenylethyl)-2-oxo-3-(3-(piperidin-1-yl)propyl)-1,4-diazepan-5-yl)methyl)acrylamide] | < 10 µM |
| NC[C@@H]1N[C@H](CNC(=O)c2ccc3ccccc3c2)CCN(Cc2cc(Cl)cc(Cl)c2)C1=O [Compound 149, N-(((3S,5S)-3-(aminomethyl)-1-(3,5-dichlorobenzyl)-2-oxo-1,4-diazepan-5-yl)methyl)-2-naphthamide] | < 10 µM |
| CNC(=O)[C@H](Cc1ccc2ccccc2c1)N1CC[C@H](CNC(=O)[C@H](N)Cc2ccc(F)cc2)N[C@@H](CCCNC(=N)N)C1=O [Compound 168, (R)-2-amino-3-(4-fluorophenyl)-N-(((3S,5R)-3-(3-guanidinopropyl)-1-((S)-1-(methylamino)-3-(naphthalen-2-yl)-1-oxopropan-2-yl)-2-oxo-1,4-diazepan-5-yl)methyl)propanamide] | < 10 µM |
| N=C(N)NCCC[C@@H]1N[C@H](CNC(=O)c2ccc3ccccc3c2)CCN(CC(Oc2ccccc2)c2ccccc2)C1=O (stereo partly drawn) [Compound 138, N-(((3S,5S)-3-(3-guanidinopropyl)-2-oxo-1-(2-phenoxy-2-phenylethyl)-1,4-diazepan-5-yl)methyl)-2-naphthamide] | < 10 µM |
| CC[C@H](CN1CC[C@@H](CNC(=O)c2ccc(-c3ccccc3)cc2)N[C@@H](CCN2CCCCC2)C1=O)c1ccccc1 [Compound 177, N-(((3S,5S)-2-oxo-1-((S)-2-phenylbutyl)-3-(2-(piperidin-1-yl)ethyl)-1,4-diazepan-5-yl)methyl)biphenyl-4-carboxamide] | < 10 µM |
| NCCC[C@@H]1N[C@H](CNC(=O)c2cc(-c3ccc(Cl)cc3)on2)CCN(CC(c2ccccc2)c2ccccc2)C1=O [Compound 129] | < 10 µM |
| N=C(N)NCCC[C@@H]1N[C@H](CNS(=O)(=O)c2ccc3ccccc3c2)CCN(CC(c2ccccc2)c2ccccc2)C1=O [Compound 103, N-(((3S,5S)-1-(2,2-diphenylethyl)-3-(3-guanidinopropyl)-2-oxo-1,4-diazepan-5-yl)methyl)naphthalene-2-sulfonamide] | < 10 µM |
| CCC(CN1CC[C@@H](CNC(=O)/C=C/c2ccc(Cl)cc2)N[C@@H](CCN)C1=O)c1ccccc1 (stereo partly drawn) [Compound 153, (E)-N-(((3S,5S)-3-(2-aminoethyl)-2-oxo-1-(2-phenylbutyl)-1,4-diazepan-5-yl)methyl)-3-(4-chlorophenyl)acrylamide] | < 10 µM |
| NCCC[C@@H]1N[C@H](CNC(=O)c2ccc(-c3ccc(Cl)cc3)o2)CCN(CC(c2ccccc2)c2ccccc2)C1=O [Compound 128] | < 10 µM |
| CNC(=O)[C@H](Cc1ccc2ccccc2c1)N1CC[C@H](CNC(=O)[C@@H](N)Cc2ccc(Cl)cc2)N[C@@H](CCCNC(=N)N)C1=O [Compound 173, (S)-2-amino-3-(4-chlorophenyl)-N-(((3S,5R)-3-(3-guanidinopropyl)-1-((S)-1-(methylamino)-3-(naphthalen-2-yl)-1-oxopropan-2-yl)-2-oxo-1,4-diazepan-5-yl)methyl)propanamide] | < 10 µM |
| NCC[C@@H]1N[C@H](CNC(=O)c2ccc(Cl)c(Cl)c2)CCN(Cc2cc(Cl)cc(Cl)c2)C1=O [Compound 140, N-(((3S,5S)-3-(2-aminoethyl)-1-(3,5-dichlorobenzyl)-2-oxo-1,4-diazepan-5-yl)methyl)-3,4-dichlorobenzamide] | < 10 µM |
| CC[C@H](CN1CC[C@@H](CNC(=O)c2ccc3cc(Cl)ccc3c2)N[C@@H](CCCN2CCCCC2)C1=O)c1ccccc1 [Compound 163, 6-chloro-N-(((3S,5S)-2-oxo-1-((S)-2-phenylbutyl)-3-(3-(piperidin-1-yl)propyl)-1,4-diazepan-5-yl)methyl)-2-naphthamide] | < 10 µM |
| CNC(=O)[C@H](Cc1ccc2ccccc2c1)N1CC[C@H](CNCc2ccc(F)cc2)N[C@@H](CCCNC(=N)N)C1=O [Compound 143, (S)-2-((3S,5R)-5-((4-fluorobenzylamino)methyl)-3-(3-guanidinopropyl)-2-oxo-1,4-diazepan-1-yl)-N-methyl-3-(naphthalen-2-yl)propanamide] | < 10 µM |
| CC(C)c1ccc(/C=C/C(=O)NC[C@@H]2CCN(CC(c3ccccc3)c3ccccc3)C(=O)[C@H](CCN3CCCCC3)N2)cc1 [Compound 155, (E)-N-(((3S,5S)-1-(2,2-diphenylethyl)-2-oxo-3-(2-(piperidin-1-yl)ethyl)-1,4-diazepan-5-yl)methyl)-3-(4-isopropylphenyl)acrylamide] | < 10 µM |
| N=C(N)NCCC[C@@H]1N[C@H](CNC(=O)c2ccc3ccccc3c2)CCN(Cc2cc(Cl)cc(Cl)c2)C1=O [Compound 100, N-(((3S,5S)-1-(3,5-dichlorobenzyl)-3-(3-guanidinopropyl)-2-oxo-1,4-diazepan-5-yl)methyl)-2-naphthamide] | < 10 µM |

— patent publication US20140128380A1, “METHODS OF MODULATING THE ACTIVITY OF THE MC1 RECEPTOR AND TREATMENT OF CONDITIONS RELATED TO THIS RECEPTOR” (Mimetica Pty Ltd, priority 2009, published 2014)
